# Test results as given in US8916516B2, “Treatment of fungal and/or protist infections” (AI2 Limited, priority 2005, dated 2014).
# Read-outs that look alike come from different tables or passages of the source.
# How the values were obtained:
# Type in all cases: cell-based
# [1] = test system: Fusarium solani 2 (FS2); assay: Antifungal MIC (Example 4); parameters: MIC values (>80% reduction) FS2, positive control: unit not given beside the values; details: for MIC values (>80% reduction) FS2: Fusarium solani 2, peptides, Tables 4 and 5
# Procedure: (§1) The inventor expanded the work conducted in Example 1 by testing an expanded library of peptides derived from either apolipoprotein B or apolipoprotein E in order to further evaluate polypeptides in accordance with the invention. These experiments were conducted using the following fungal species:
# (§2) FS1-FS4 were obtained from Bristol PHLS (British Public Health Laboratory Service UK). Aspergillus fumigatus 293 is publicly available as culture collection strain NCPF7367 (National Collection of Pathogenic Fungi Public Health Laboratory, Mycological Reference Laboratory Myrtle Road, Kingsdown, Bristol BS2 8EL) The Candida albicans was a clinical isolate obtained by standard means.
# (§3) The methods used to determine, the IC50 values for each peptide were as described in the Example 1.
# [2] = test system: Aspergillus niger (clinical isolate); assay: microbe, parasite or virus in culture
# Procedure: (§4) Four compounds were supplied as an aqueous solution, 400 μM. Serial dilutions of each test peptide were prepared in addition to a control, which was a conventional antifungal drug, Amphoteracin B. Amphteracin B is obtained from Invitrogen or Melford laboratories.
# (§5) Initial testing of the peptides was carried out against the following organisms: • 1) Aspergillus fumigatus AF293 (culture collection strain NCPF7367) • 2) Candida albicans 6862 (clinical isolate) • 3) Fusarium spp 5889 (clinical isolate) • 4) Fusarium spp 6507 (clinical isolate) • 5) Aspergillus terreus (clinical isolate) • 6) Aspergillus niger (clinical isolate) • 7) Staphylococcus aureus (Oxford strain, which is a standard reference strain used in MIC testing)
# (§6) The bacterium S. aureus was tested with each of the peptides as a control. A suspension of each organism in an appropriate growth medium was added to the, dilutions of the peptides in order to give concentration ranges of 40 μM to 0.04 μM for each of the peptides, and 64-0.025 μg/ml for amphotericin B. Fungal strains were tested in RPMI media. RPMI is standard Roswell Park Memorial Institute medium (Morton, H. C., (1970) A survey of Commercially Available Tissue Culture Media. In Vitro 6: 89-108).
# (§7) Candida and S. aureus plates were read after 24 hrs incubation and the Aspergillus and Fusarium strains read after 48 hrs. The MIC was taken as the lowest drug or compound concentration that caused >80% reduction in growth compared with a drug free control.
# [3] = test system: Aspergillus terreus (clinical isolate); assay: microbe, parasite or virus in culture
# Procedure: as §4, §5, §6, §7
# [4] = test system: Aspergillus fumigatus AF293 (NCPF7367); assay: microbe, parasite or virus in culture; parameters: MIC values (>80% reduction) AF, positive control: unit not given beside the values; details: for MIC values (>80% reduction) AF: Aspergillus fumigatus 293, peptides, Tables 4 and 5
# Procedure: as §4, §5, §6
# (§8) The final inoculum for S. aureus was 5×10^4 cfu/ml. The final inoculum for C. albicans was 2×10^3 cfu/ml. The final inoculum for Aspergillus fumigatus and for Fusarium spp was 2×10^4 cfu/ml.
# as §7
# Aspergillus fumigatus 293 (AF); and
# as §2, with “means. […]” for “means.”
# [5] = test system: Fusarium spp 6507 (clinical isolate); assay: Antifungal MIC broth dilution (Example 1); details: RPMI, 48 hrs, >80% reduction
# Procedure: as §4, §5, §6, §8, §7
# [6] = test system: Fusarium spp 5889 (clinical isolate); assay: Antifungal MIC broth dilution (Example 1); details: RPMI, 48 hrs, >80% reduction
# Procedure: as §4, §5, §6, §8, §7
# [7] = test system: Fusarium solani 4 (FS4); assay: Antifungal MIC (Example 4); parameters: MIC values (>80% reduction) FS4, positive control: unit not given beside the values; details: for MIC values (>80% reduction) FS4: Fusarium solani 4, peptides, Tables 4 and 5
# Procedure: as §1, §2, §3
# [8] = test system: Fusarium solani 3 (FS3); assay: Antifungal MIC (Example 4); parameters: MIC values (>80% reduction) FS3, positive control: unit not given beside the values; details: for MIC values (>80% reduction) FS3: Fusarium solani 3, peptides, Tables 4 and 5
# Procedure: as §1, §2, §3
# [9] = test system: Staphylococcus aureus (Oxford strain); assay: microbe, parasite or virus in culture
# Procedure: as §4, §5, §6
# S. aureus was tested in Isosensitest broth. Isosentitest agar is a standard MIC medium used by many hospital labs for bacterial MICs using a disc diffusion method. The reference standard is Oxoid CM471. Also available in broth form, CM473, for the bacterial broth dilution assay method. NCCLS ref M7-A4. Both the NCCLS methods quoted are the standard methods.
# as §8, §7
# [10] = test system: Fusarium solani 1 (FS1); assay: Antifungal MIC (Example 4); parameters: MIC values (>80% reduction) FS1, positive control: unit not given beside the values; details: for MIC values (>80% reduction) FS1: Fusarium solani 1, peptides, Tables 4 and 5
# Procedure: as §1, §2, §3
# [11] = test system: Candida albicans 6862 (clinical isolate); assay: microbe, parasite or virus in culture
# Procedure: as §4, §5, §6, §8, §7
# [12] = test system: fungi; details: overall statement on the fungi tested
# Procedure: as §4, §5
# The bacterium S. aureus was tested with each of the peptides as a control. […] RPMI is standard Roswell Park Memorial Institute medium (Morton, H. C., (1970) A survey of Commercially Available Tissue Culture Media. In Vitro 6: 89-108).
# as §7, §3
# [13] = test system: Acanthamoeba polyphaga (trophozoites), Ros strain; assay: Microtitre plate assay against Acanthamoeba trophozoites (Example 2); details: lowest concentration killing the trophozoite challenge
# Source text: The test compounds were screened against the trophozoites of clinical isolates of Acanthamoeba spp. using a microtitre plate assay procedure. The organisms were Acanthamoeba polyphaga. (see for details on the strain and methodology used: Hughes, R. & Kilvington, S. (2001). A comparison of hydrogen peroxide contact lens disinfection systems and solutions against Acanthamoeba polyphaga. Antimicrob. Agents Chemother. 45: 2038-2043.) Acanthamoeba polyphaga Ros strain was used throughout the study. The strain was originally isolated from an unpublished case of acanthamoeba keratitis in the United Kingdom in 1994.
# Use of the microliter plate assay enabled the determination of the minimum amoebacidal trophozoite concentration (MATC), which is the minimum amoebacidal trophozoite concentration (μg/ml)=lowest concentration killing the trophozoite challenge […] and also the minimum inhibitory trophozoite concentration (MITC), which is the minimum inhibitory trophozoite concentration (μg/ml)=lowest concentration stopping the trophozoites from dividing or killing about 50% of population. The values may then be used to select drug concentrations for use in time-kill experiments to study the kinetics of Acanthamoeba killing.
# [14] = test system: Candida albicans (CA), clinical isolate; assay: Antifungal MIC (Example 4); details: peptides, Tables 4 and 5
# Procedure: as §1, §2, §3
Compound,antifungal activity (in words) [12],MIC values (>80% reduction) FS2 [1] [µM],MIC values (>80% reduction) AF [4] [µM],MIC values (>80% reduction) FS4 [7] [µM],MIC values (>80% reduction) FS3 [8] [µM],MIC values (>80% reduction) CA [14] [µM],MIC values (>80% reduction) FS1 [10] [µM],also measured
"C[C@@H]1[C@H](O)[C@@H](C)/C=C/C=C/C=C/C=C/C=C/C=C/C=C/[C@H](O[C@@H]2O[C@H](C)[C@@H](O)[C@H](N)[C@@H]2O)C[C@@H]2O[C@](O)(C[C@@H](O)C[C@@H](O)[C@H](O)CC[C@@H](O)C[C@@H](O)CC(=O)O[C@H]1C)C[C@H](O)[C@H]2C(=O)O [Amphotericin B, reference compound]",–,–,–,–,–,–,–,"MIC values (>80% reduction) FS2, positive control ([1]; Amphotericin B, second of five values, unit not given): 1.25; MIC ([2]; Aspergillus niger, RPMI, >80% reduction, read-out: MIC): 0.15 µg/mL; MIC ([3]; Aspergillus terreus, RPMI, >80% reduction, read-out: MIC): 1.25 µg/mL; MIC values (>80% reduction) AF, positive control ([4]; Amphotericin B, fifth of five values, unit not given): 0.04; MIC ([4]; NCPF7367, Aspergillus fumigatus, RPMI, read after 48 hrs, >80% reduction, read-out: MIC): 0.6 µg/mL; MIC ([5]; read-out: MIC): 1.25 µg/mL; MIC ([6]; read-out: MIC): 2.5 µg/mL; MIC values (>80% reduction) FS4, positive control ([7]; Amphotericin B, fourth of five values, unit not given): 0.15; MIC values (>80% reduction) FS3, positive control ([8]; Amphotericin B, third of five values, unit not given): 0.3; MIC ([9]; Staphylococcus aureus, Staph aureus (Oxford), Isosensitest broth, 24 hrs, read-out: MIC): > 40 µg/mL; MIC values (>80% reduction) FS1, positive control ([10]; Amphotericin B, first of five values, unit not given): 0.15; MIC ([11]; Candida albicans, C. albicans 6862, RPMI, read after 24 hrs, >80% reduction in growth, read-out: MIC): 0.6 µg/mL"
Ac-WRKWRKRLLLRKLRKRLL-NH2 [MU_114],showed antifungal activity,–,–,–,–,–,–,"MIC ([2]; clinical isolate): 20 µM; MIC [3]: >40 µM; MIC ([4]; AF293 (NCPF7367, 48 h)): >40 µM; MIC [5]: 40 µM; MIC [6]: 5 µM; MIC ([9]; Oxford strain, 24 h): 40 µM; MATC = minimum amoebacidal trophozoite concentration ([13]; listed as MU 114): 98.7 µM; MATC = minimum amoebacidal trophozoite concentration ([13]; listed as MU114): 93.8 µM; MIC ([11]; 6862 (clinical isolate, 24 h)): >40 µM"
FRKFRKRFFFRKFRKRFF (Artficial polypeptide designated MU7) [MU_7],particularly effective antifungal peptides,2.5,>40,20,5,>40,5,MATC = minimum amoebacidal trophozoite concentration [13]: 93.1 µM
RRKRRKRRRRRKRRKRRR (Artificial polypeptide designated MU 16) [MU_16],particularly effective antifungal peptides,1.25,40,2.5,1.25,10,1.25,–
"RRWRKRWRKWRWRKRWRK (Artificial polypeptide designated MU 28) [MU_28, 42]",good antifungal activity,0.6,10,2.5,1.25,>40,0.6,–
"WRKWRKRWW (Artificial polypeptide designated MU 45) [MU_45, 87; monomer on which MU 4 is based]",ineffective,40,>40,>40,40,>40,40,–
"WRWKKKWRKWRWKKKWRK (Artificial polypeptide designated MU 26) [MU_26, 89]",reduced activity,5,>40,10,5,>40,5,–
WRWRKRWRKWRWRKRWRK (Artificial polypeptide designated MU 27) [MU_27],good antifungal activity,0.6,5,1.25,0.6,20,0.6,–
"WRWRRRWRKWRWRRRWRK (Artificial polypeptide designated MU 25) [MU_25, 88]",reduced activity,5,10,20,10,>40,5,–
YRKYRKRYYYRKYRKRYY (Artificial polypeptide designated GIN 41 or MU6) [MU_6],particularly effective antifungal peptides,5,>40,20,5,>40,10,–
